Data taken from patent publication US10266497B2 (ABIDE THERAPEUTICS, INC., priority 2017, dated 2019).

How the values were obtained:
MAGL [1] = target: T1, MAGL (Homo sapiens, UniProt Q99685); test: In vitro competitive activity-based protein profiling, MAGL, human; conditions: read-out: MAGL % inh. 1 μM (human)
T1 sequence (Q99685 1-303): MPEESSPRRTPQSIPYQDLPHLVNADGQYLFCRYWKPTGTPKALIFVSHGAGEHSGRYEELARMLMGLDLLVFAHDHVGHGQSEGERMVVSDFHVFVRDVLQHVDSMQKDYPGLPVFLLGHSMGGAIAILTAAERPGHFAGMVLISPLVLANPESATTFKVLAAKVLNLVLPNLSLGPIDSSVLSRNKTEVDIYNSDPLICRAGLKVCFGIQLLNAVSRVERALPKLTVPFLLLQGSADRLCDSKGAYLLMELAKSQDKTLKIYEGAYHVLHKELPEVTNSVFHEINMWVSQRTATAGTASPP
Method: (§1) Biological Evaluation In Vitro Competitive Activity-Based Protein Profiling.
(§2) Proteomes (mouse brain membrane fraction for mouse assays; human prefrontal cortex membrane fractions for human assays) (50 mL, 1.0 mg/mL total protein concentration) were preincubated with varying concentrations of inhibitors at 37° C. After 30 min, FP-Rh (1.0 mL, 50 mM in DMSO) was added and the mixture was incubated for another 30 min at 37° C. Reactions were quenched with SDS loading buffer (15 μL—4λ) and run on SDS-PAGE.

FAAH [2] = target: T2, FAAH (Homo sapiens, UniProt O00519); test: In vitro competitive activity-based protein profiling, FAAH, human; conditions: for inhibition at 1 µM: read-out: FAAH % inh. 1 μM (human)
T2 sequence (O00519 1-579): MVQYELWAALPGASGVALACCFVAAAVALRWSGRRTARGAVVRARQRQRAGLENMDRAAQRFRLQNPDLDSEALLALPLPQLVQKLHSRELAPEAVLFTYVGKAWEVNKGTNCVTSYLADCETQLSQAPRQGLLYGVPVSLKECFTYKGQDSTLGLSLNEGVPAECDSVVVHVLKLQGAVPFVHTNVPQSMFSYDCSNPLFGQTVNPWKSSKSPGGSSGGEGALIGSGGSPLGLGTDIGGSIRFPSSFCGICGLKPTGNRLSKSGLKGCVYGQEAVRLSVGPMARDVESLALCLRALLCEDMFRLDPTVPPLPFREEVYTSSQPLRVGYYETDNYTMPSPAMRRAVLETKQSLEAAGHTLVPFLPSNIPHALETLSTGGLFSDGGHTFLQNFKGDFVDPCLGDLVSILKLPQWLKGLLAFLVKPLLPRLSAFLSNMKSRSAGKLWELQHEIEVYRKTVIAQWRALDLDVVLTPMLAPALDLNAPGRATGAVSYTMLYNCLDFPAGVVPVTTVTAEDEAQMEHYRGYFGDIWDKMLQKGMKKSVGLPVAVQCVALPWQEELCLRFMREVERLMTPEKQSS

MAGL [3] = target: T3, MAGL (Mus musculus, UniProt O35678); test: In vitro competitive activity-based protein profiling, MAGL, mouse; conditions: read-out: MAGL % inh. 1 μM (mouse)
T3 sequence (O35678 1-303): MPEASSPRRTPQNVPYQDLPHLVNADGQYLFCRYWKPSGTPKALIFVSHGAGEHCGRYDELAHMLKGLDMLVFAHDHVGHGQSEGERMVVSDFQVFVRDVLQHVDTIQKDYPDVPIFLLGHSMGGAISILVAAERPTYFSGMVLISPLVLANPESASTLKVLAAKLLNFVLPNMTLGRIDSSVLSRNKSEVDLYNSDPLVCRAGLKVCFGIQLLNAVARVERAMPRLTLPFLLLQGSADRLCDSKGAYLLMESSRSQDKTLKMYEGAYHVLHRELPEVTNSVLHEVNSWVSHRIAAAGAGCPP

FAAH [4] = target: T4, FAAH (Mus musculus, UniProt O08914); test: In vitro competitive activity-based protein profiling, FAAH, mouse; conditions: read-out: FAAH % inh. 1 μM (mouse)
T4 sequence (O08914 1-579): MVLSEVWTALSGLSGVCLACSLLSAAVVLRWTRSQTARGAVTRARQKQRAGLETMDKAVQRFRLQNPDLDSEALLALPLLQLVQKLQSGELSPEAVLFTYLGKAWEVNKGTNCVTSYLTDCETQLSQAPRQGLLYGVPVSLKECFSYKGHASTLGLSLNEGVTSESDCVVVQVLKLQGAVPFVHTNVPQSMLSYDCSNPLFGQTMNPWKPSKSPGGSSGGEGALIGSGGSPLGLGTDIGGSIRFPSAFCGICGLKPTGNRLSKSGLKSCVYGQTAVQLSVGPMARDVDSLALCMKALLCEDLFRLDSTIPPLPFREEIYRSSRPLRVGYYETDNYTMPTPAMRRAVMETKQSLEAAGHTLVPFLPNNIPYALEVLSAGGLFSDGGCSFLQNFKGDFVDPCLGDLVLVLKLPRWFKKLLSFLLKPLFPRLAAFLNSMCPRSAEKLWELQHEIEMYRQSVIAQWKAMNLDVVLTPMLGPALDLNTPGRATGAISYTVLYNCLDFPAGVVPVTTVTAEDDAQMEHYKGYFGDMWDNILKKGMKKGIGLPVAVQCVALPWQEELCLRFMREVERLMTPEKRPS
Method: as §1, §2

Structure (SMILES)	inhibition at 1 µM (MAGL [1]) [%]	inhibition at 1 µM (FAAH [2]) [%]	inhibition at 1 µM (MAGL [3]) [%]	inhibition at 1 µM (FAAH [4]) [%]	IC50 (FAAH [2]) [nM]
CN(Cc1ccccc1Cl)[C@H]1C[C@@H]2CN(C(=O)n3ccc(C(N)=O)n3)C[C@@H]2C1 [Example 200, 1-(trans-5-((2-chlorobenzyl) (methyl)amino)octa-hydrocyclopenta[c]pyrrole-2-carbonyl)-1H-pyrazole-3-carboxamide]			> 75	> 75	
O=C(O)c1ccn(C(=O)N2CCN(Cc3cccc(Oc4ccnnc4)c3)CC2)n1 [Example 177, 1-(4-(3-(pyridazin-4-yloxy)benzyl)pipera-zine-1-carbonyl)-1H-pyrazole-3-carboxylic acid]	25 to 50	0 to 25			
NC(=O)c1ccn(C(=O)N2CCC3(CCN(Cc4cc(F)cc(Cl)c4)C3)CC2)n1 [Example 178, 1-(2-(3-chloro-5-fluorobenzyl)-2,8-diazaspiro[4.5]decane-8-carbonyl)-1H-pyrazole-3-carboxamide]	> 75	> 75			
NC(=O)c1ccn(C(=O)N2CCN(Cc3cccc(-c4cncnc4)c3)CC2)n1 [Example 179, 1-(4-(3-(pyrimidin-5-yl)benzyl)piperazine-1-carbonyl)-1H-pyrazole-3-carboxamide]	> 75	50 to 75			
NC(=O)c1ccn(C(=O)N2CCC3(CCN(Cc4cc(Cl)cc(C(F)(F)F)c4)C3)CC2)n1 [Example 196, 1-(2-(3-chloro-5-(trifluoromethyl)benzyl)-2,8-diazaspiro[4.5]decane-8-carbonyl)-1H-pyrazole-3-carboxamide]	> 75	> 75			
O=C(O)c1ccn(C(=O)N2CCC3(CCN(Cc4ccc(-c5ccccc5)cc4C(F)(F)F)C3)CC2)n1 [Example 170, 1-(2-((3-(trifluoromethyl)-[1,1′-biphenyl]-4-yl)methyl)-2,8-diazaspiro[4.5]decane-8-carbonyl)-1H-pyrazole-3-carboxylic acid]	> 75	> 75			100 to 1000
O=C(O)c1ccn(C(=O)N2CCC3(CCN(Cc4cccc(-c5ccccc5)c4Cl)C3)CC2)n1 [Example 358, 1-(2-((2-chloro-[1,1′-biphenyl]-3-yl)methyl)-2,8-diazaspiro[4.5]decane-8-carbonyl)-1H-pyrazole-3-carboxylic acid]	> 75		> 75		
O=C(O)c1ccn(C(=O)N2C[C@H]3C[C@H](Oc4ccccc4-c4cccnc4)C[C@H]3C2)n1 [Example 244, 1-(trans-5-(2-(pyridin-3-yl)phenoxy)octa-hydrocyclopenta[c]pyrrole-2-carbonyl)-1H-pyrazole-3-carboxylic acid]	> 75		> 75		
O=C(O)c1ccn(C(=O)N2CCC(OCc3cc(Cl)cc(Oc4ccc(Cl)cc4)c3)CC2)n1 [Example 27, 1-(4-((3-Chloro-5-(4-chlorophenoxy)benzyl)oxy)piperidine-1-carbonyl)-1H-pyrazole-3-carboxylic Acid]	> 75		> 75		
O=C(O)c1ccn(C(=O)N2CCN(Cc3cccc(Oc4ccc(C(F)(F)F)nc4)c3)CC2)n1 [Example 354, 1-(4-(3-((6-(trifluoromethyl)pyridin-3-yl)oxy)benzyl)piper-azine-1-carbonyl)-1H-pyrazole-3-carboxylic acid]	> 75		> 75		
C[C@H]1CN(Cc2cccc(Oc3cc(C(F)(F)F)ccn3)c2)CCN1C(=O)n1ccc(C(=O)O)n1 [Example 373, (S)-1-(2-methyl-4-(3-((4-(trifluoromethyl)pyridin-2-yl)oxy)benzyl)piper-azine-1-carbonyl)-1H-pyrazole-3-carboxylic acid]	> 75		> 75		
O=C(O)c1ccn(C(=O)N2CCN(Cc3cccc(Oc4cccc(C(F)(F)F)n4)c3)CC2)n1 [Example 353, 1-(4-(3-((6-(trifluoromethyl)pyridin-2-yl)oxy)benzyl)piper-azine-1-carbonyl)-1H-pyrazole-3-carboxylic acid]	> 75		> 75		
NC(=O)c1ccn(C(=O)N2CCC3(CCCN3C(=O)c3cc4ccc(C(F)(F)F)cc4s3)CC2)n1 [Example 389, 1-(1-(6-(trifluoromethyl)benzo[b]thiophene-2-carbonyl)-1,8-diazaspiro[4.5]decane-8-carbonyl)-1H-pyrazole-3-carboxamide]	> 75		> 75		

Continued, values first:

inhibition at 1 µM (MAGL [1]) [%]	inhibition at 1 µM (FAAH [2]) [%]	inhibition at 1 µM (MAGL [3]) [%]	inhibition at 1 µM (FAAH [4]) [%]	IC50 (FAAH [2]) [nM]	Structure (SMILES)
> 75	0 to 25				O=C(O)c1ccn(C(=O)N2CCC3(CCCN3Cc3ccc(Cl)cc3N3CCCC3)CC2)n1 [Example 180, 1-(1-(4-chloro-2-(pyrrolidin-1-yl)benzyl)-1,8-diazaspiro[4.5]decane-8-carbonyl)-1H-pyrazole-3-carboxylic acid]
> 75		> 75			O=C(O)c1ccn(C(=O)N2CCC3(CCN(Cc4cc(Cl)ccc4C(F)(F)F)CC3)CC2)n1 [Example 217, 1-(9-(5-chloro-2-(trifluoromethyl)benzyl)-3,9-diazaspiro[5.5]undecane-3-carbonyl)-1H-pyrazole-3-carboxylic acid]
> 75		> 75			Cc1c(COC2CCN(C(=O)n3ccc(C(=O)O)n3)CC2)cccc1C(F)(F)F [Example 235, 1-(4-((2-methyl-3-(trifluoromethyl)benzyl)oxy)piper-idine-1-carbonyl)-1H-pyrazole-3-carboxylic acid]
> 75		> 75			C[C@H]1CN(Cc2cccc(OCC(C)(C)O)c2Cl)CCN1C(=O)n1ccc(C(N)=O)n1 [Example 450, (S)-1-(4-(2-chloro-3-(2-hydroxy-2-methylpropoxy)benzyl)-2-methylpiperazine-1-carbonyl)-1H-pyrazole-3-carboxamide]
> 75		> 75			C[C@@H]1CN(Cc2ccc(Cl)c(-c3nccs3)c2)CCN1C(=O)n1ccc(C(=O)O)n1 [Example 299, (R)-1-(4-(4-chloro-3-(thiazol-2-yl)benzyl)-2-methylpiperazine-1-carbonyl)-1H-pyrazole-3-carboxylic acid]
> 75		> 75			O=C(O)c1ccn(C(=O)N2CCC3(CCN(Cc4cc(N5CCCC5)ccc4C(F)(F)F)C3)CC2)n1 [Example 391, 1-(2-(5-(pyrrolidin-1-yl)-2-(trifluoromethyl)benzyl)-2,8-diazaspiro[4.5]decane-8-carbonyl)-1H-pyrazole-3-carboxylic acid]
> 75		> 75			O=C(O)c1nn(C(=O)N2C[C@H]3C[C@H](OCc4cc(F)cc(Cl)c4)C[C@H]3C2)cc1Cl [Example 296, 4-chloro-1-(trans-5-((3-chloro-5-fluorobenzyl)oxy)octahydrocyclopenta [c]pyrrole-2-carbonyl)-1H-pyrazole-3-carboxylic acid]
